Results on 1 compound are retold here after patent US8552064B2, “Suramin and derivatives thereof as topical microbicide and contraceptive” (Eastern Virginia Medical School, priority 2005, dated 2013).

≈ marks a conversion by molar mass, not a printed value. Read-outs that look alike come from different tables or passages of the source.

As usually defined, the inhibition is the drop in the measured response relative to a control, in per cent. For orientation: EC50 means the concentration at which the effect is half-maximal.

Holding throughout (type): cell-based
One assay relates to HIV-1 clinical isolates. Description: Clinical isolates in PBMC assay. How it is done: Peripheral blood mononuclear cells (PBMCs) were obtained from normal hepatitis and HIV-1 negative donors by ficoll hypaque gradient separation. Briefly, anti-coagulated blood is diluted 1:1 with Dulbecco's phosphate buffered saline without Ca^++ and Mg^++ (PBS) and layered over 14 mL of Lymphocyte separation media in a 50 ml centrifuge tube. Tubes were then centrifuged for 30 minutes at 600×g. Banded PBMCs were gently aspirated from the resulting interface and subsequently washed 2× with PBS by low speed centrifugation. The mononuclear cells were counted, viability was determined by Trypan Blue dye exclusion and the cells were resuspended in RPMI 1640 medium supplemented with 15% FBS (heat inactivated), 2 mM L-glutamine, 100 U/mL penicillin, 100 μg/mL streptomycin, and 10 μg/mL gentamycin with 20 U/mL recombinant IL-2 (R&D Systems, Minneapolis, Minn.). […]
Human peripheral blood mononuclear cells from a minimum of two donors, that have been stimulated with PHS- and IL-2, were counted and their viability was determined by Trypan Blue dye exclusion and mixed in equal rations. Pooled donors were used to minimize the variability observed between individual donors, which results from quantitative and qualitative differences in HIV infection, and overall response to the PHA and IL-2 of primary lymphocyte populations. […]

For assay [1], the system named is Chlamydia trachomatis (serotype E/UW-5/CX). Description: Chlamydia multiplication inhibition. How it is done: Chlamydia multiplication inhibition was performed according to Cooper M. D. et al., J. Gen. Microbiol., 136: 1109-1115 (1990). Prior to experimentation, cryo-preserved Chlamydia trachomatis (serotype E/UW-5/CX) were quickly thawed (37° C.) and suspended by mild sonication. Serial 1:10 dilutions of the bacterial suspension were made, ranging from 10^−1 to 10^−7.
HeLa monolayers (on coverslips) were inoculated with 100 μl of the different dilutions of chlamydia (elementary bodies), in the presence or absence of test agent. The suramin compound was tested at 0.1, 1.0, 10, 100 and 1000 μg/ml. After 1 hour, the monolayers were washed to remove free chlamydia and test agent, and they were incubated for 48 hours.
Medium was removed, and the HeLa monolayers were fixed in methanol, washed, and treated with Kallsted Chlamydia Culture Confirmation fluorescein-conjugated Monoclonal Antibody. Reaction of labeled antibody with the cells was carried out for 30 minutes at room temperature (i.e., 25° C.) (no light) in a humidified chamber. The cells were washed with water; a drop of mounting medium is placed on a glass slide, and the coverslip was applied. Inclusions due to chlamydial infection were visualized with a fluorescent microscope as green fluorescence. Data was reported as the number of inclusion forming units per ml of undiluted chlamydial titer, and were adjusted to control values of 2.6×10^7 IFU/ml for control cultures (no test agent) in each experiment. […] After logarithmic transformation of all data, dose-response curves were created with curve-fitting (TableCurve 2D, version 3.02; Jandel Scientific) software.

The test system of assay [2] is HIV-1 Ba-L in monocyte-derived dendritic cells. Description: Infection of T cells by HIV associated to dendritic cells (DC/T assay). The following applies: for EC50: Human immunodeficiency virus 1, Dendritic cell. How it is done: Monocyte-derived dendritic cells (MO-DC), infected with the NSI/R5 strain Ba-L at 10-3 multiplicity of infection, were cultured alone or with autologous CD4(+) T cells at a ratio 1:1 or 1:10. A dilution series of suramin was added to the MO-DC, 1 hour prior to infection and remained present during infection. After infection, cells were extensively washed and compounds were added at the same concentrations as for the pre-incubation. Medium and compounds were refreshed twice a week. After 2 weeks, HIV Ag was measured in supernatants with ELISA and EC50 values (effective conc. 50%) were calculated using linear regression (Vanham G et al, AIDS 2000, 14: 2299-2311). The results of this assay are provided herein.

As to `Cc1ccc(C(=O)Nc2ccc(S(=O)(=O)O)c3cc(S(=O)(=O)O)cc(S(=O)(=O)O)c23)cc1NC(=O)c1cccc(NC(=O)Nc2cccc(C(=O)Nc3cc(C(=O)Nc4ccc(S(=O)(=O)O)c5cc(S(=O)(=O)O)cc(S(=O)(=O)O)c45)ccc3C)c2)c1` [Suramin, 8,8′-(carbonylbis(imino-3,1-phenylenecarbonylimino(4-methyl-3,1-phenylene)carbonylimino))bis-1,3,5-naphthalene trisulfonic acid], in the assay with HIV-1 clinical isolates, the “Potency, HIV-1 Clin Isolates” value is listed as “High”. Moreover, the IC50 with HIV-1 clinical isolates (Human immunodeficiency virus 1, PBMC, read-out: IC50 Clin Isolates) turned out to be 14.6 µg/mL (≈ 11.3 µM); in assay [1] (Chlamydia trachomatis, read-out: IC50 Chlamydia (CT) Multiplication), 28 µg/mL (≈ 21.6 µM); in assay [2] (Human immunodeficiency virus 1, BAL, Dendritic cell, read-out: IC50 dendritic cell (DC)/T lymphocyte model) it was 17 µg/mL (≈ 13.1 µM). Moreover, the “Potency, Chlamydia (CT) Multiplication” value in assay [1] is on record as “High”. Also, the “inhibition of CT multiplication” value in assay [1] (2 mg/mL) is on record as “inhibition was essentially complete”. Also, the titer in assay [1] (2 mg/mL, control titer 1×10^−5) is on record as 0.08×10^−5. Further, in assay [1] (Chlamydia trachomatis, read-out: inhibition of CT multiplication), the inhibition at 100 µg/mL turned out to be 75%. In assay [1] (Chlamydia trachomatis, 2 mg/mL, read-out: inhibition of CT multiplication), the inhibition at 2000 µg/mL stood at 100%. Moreover, the “Potency, HIV-1 DC” value in assay [2] was “High”. Besides, the EC50 worked out at 56 ± 6 µg/mL (≈ 43.2 µM) in assay [2] (DC infected with BaL cultured alone, read-out: EC50, Dendritic Cells (DC)); 57.5 ± 5 µg/mL in assay [2] (DC infected with BaL with autologous T lymphocytes 1:1, read-out: EC50, DC + T Cells (1:1)); 17 ± 3 µg/mL in assay [2] (DC infected with BaL with autologous T lymphocytes 1:10, read-out: EC50, DC + T Cells (1:10)).
